Experimental data as given in ChEMBL document CHEMBL4041549, “Tetrahydroisoquinoline-7-carboxamide Derivatives as New Selective Discoidin Domain Receptor 1 (DDR1) Inhibitors” (ACS Med Chem Lett, 2017).
Calls of active or inactive are those of the source. No cut-off for these calls is given here.

Key:
[1] = biological target: Bcr/Abl fusion protein (Homo sapiens, UniProt P00519); test: Inhibition of recombinant human full length His-tagged Bcr-Abl fusion protein cytoplasmic domain expressed in baculovirus expression system using tyrosine-2 as substrate measured after 1 hr by FRET-based Z'-Lyte assay
[2] = biological target: Mast/stem cell growth factor receptor Kit (Homo sapiens, UniProt P10721); test: Inhibition of recombinant human His-tagged c-kit cytoplasmic domain (544 to 976 residues) expressed in baculovirus expression system using […] as substrate measured after 1 hr by FRET-based Z'-Lyte assay
[3] = biological target: T1, Epithelial discoidin domain-containing receptor 1 (Homo sapiens, UniProt Q08345); test: Inhibition of recombinant human GST-tagged DDR1 catalytic domain expressed in baculovirus expression system using Fluorescein-Poly GAT as substrate measured after 1 hr by TR-FRET assay
[4] = biological target: T2, Discoidin domain-containing receptor 2 (Homo sapiens, UniProt Q16832); test: Inhibition of recombinant human GST-tagged DDR2 cytoplasmic domain expressed in baculovirus expression system using Fluorescein-Poly GAT as substrate measured after 1 hr by TR-FRET assay
T2 sequence (Q16832 whole entry): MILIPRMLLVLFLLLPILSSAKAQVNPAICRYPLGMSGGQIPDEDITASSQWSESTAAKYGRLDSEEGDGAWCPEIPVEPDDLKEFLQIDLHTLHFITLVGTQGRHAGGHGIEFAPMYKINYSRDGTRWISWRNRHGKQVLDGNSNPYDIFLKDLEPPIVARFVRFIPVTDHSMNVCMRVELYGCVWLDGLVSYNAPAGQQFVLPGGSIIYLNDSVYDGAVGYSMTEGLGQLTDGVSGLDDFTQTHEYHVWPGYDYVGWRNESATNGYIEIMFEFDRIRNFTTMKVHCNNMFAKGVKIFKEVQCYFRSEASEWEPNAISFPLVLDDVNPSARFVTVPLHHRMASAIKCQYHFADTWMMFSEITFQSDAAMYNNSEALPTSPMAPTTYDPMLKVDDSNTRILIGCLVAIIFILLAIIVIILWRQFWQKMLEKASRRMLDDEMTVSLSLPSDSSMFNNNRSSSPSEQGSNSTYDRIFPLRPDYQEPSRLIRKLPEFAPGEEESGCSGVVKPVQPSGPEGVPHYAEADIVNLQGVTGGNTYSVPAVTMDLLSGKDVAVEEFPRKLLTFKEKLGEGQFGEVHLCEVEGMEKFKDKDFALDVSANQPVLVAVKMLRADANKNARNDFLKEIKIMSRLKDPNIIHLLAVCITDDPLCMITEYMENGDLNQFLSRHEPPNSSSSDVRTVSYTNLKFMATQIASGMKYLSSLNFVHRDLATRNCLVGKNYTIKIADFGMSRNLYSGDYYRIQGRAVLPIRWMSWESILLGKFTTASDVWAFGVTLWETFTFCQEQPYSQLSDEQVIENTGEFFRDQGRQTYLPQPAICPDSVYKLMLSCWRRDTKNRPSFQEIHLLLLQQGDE

[5] = biological target: T1, Epithelial discoidin domain-containing receptor 1; test: Binding affinity to human DNA-tagged DDR1 expressed in bacterial expression system measured after 1 hr by quantitative PCR analysis
[6] = test system: Peritoneal macrophage; test: Anti-inflammatory activity in C57BL/6 mouse primary peritoneal macrophages assessed as inhibition of LPS-induced IL-6 production by ELISA method; assay type: functional, cell-based
[7] = test system: Peritoneal macrophage; test: Anti-inflammatory activity in C57BL/6 mouse primary peritoneal macrophages assessed as inhibition of LPS-induced TNF-alpha production by ELISA method; assay type: functional, cell-based
[8] = test system: Mus musculus; test: Anti-inflammatory activity in LPS-induced C57BL/6 mouse acute lung injury model assessed as reduction in lung wet/dry ratio at 20 to 40 mg/kg, po bid pretreated for 7 days followed by LPS challenge measured after 6 hrs; assay type: functional, organism-based
[9] = test system: Mus musculus; test: Anti-inflammatory activity in po dosed LPS-induced C57BL/6 mouse acute lung injury model assessed as reduction in total number of cells in bronchoalveolar lavage fluid pretreated for 7 days followed by LPS challenge measured after 6 hrs by cell counter; assay type: functional, organism-based
[10] = test system: Mus musculus; test: Anti-inflammatory activity in po dosed LPS-induced C57BL/6 mouse acute lung injury model assessed as reduction in total protein concentration in bronchoalveolar lavage fluid pretreated for 7 days followed by LPS challenge measured after 6 hrs; assay type: functional, organism-based
[11] = test system: Mus musculus; test: Anti-inflammatory activity in LPS-induced C57BL/6 mouse acute lung injury model assessed as reduction in pathological changes at 20 to 40 mg/kg, po bid pretreated for 7 days followed LPS challenge measured after 6 hrs hematoxylin and eosin staining based microscopy; assay type: functional, organism-based
[12] = biological target: BDNF/NT-3 growth factors receptor (Homo sapiens) (UniProt Q16620); test: Binding affinity to human DNA-tagged TrkB measured after 1 hr by quantitative PCR analysis
[13] = biological target: NT-3 growth factor receptor (Homo sapiens) (UniProt Q16288); test: Binding affinity to human DNA-tagged TrkC measured after 1 hr by quantitative PCR analysis
[14] = biological target: T1, Epithelial discoidin domain-containing receptor 1; settings: 1 uM

T1 sequence (Q08345 whole entry, the tested form may be a part): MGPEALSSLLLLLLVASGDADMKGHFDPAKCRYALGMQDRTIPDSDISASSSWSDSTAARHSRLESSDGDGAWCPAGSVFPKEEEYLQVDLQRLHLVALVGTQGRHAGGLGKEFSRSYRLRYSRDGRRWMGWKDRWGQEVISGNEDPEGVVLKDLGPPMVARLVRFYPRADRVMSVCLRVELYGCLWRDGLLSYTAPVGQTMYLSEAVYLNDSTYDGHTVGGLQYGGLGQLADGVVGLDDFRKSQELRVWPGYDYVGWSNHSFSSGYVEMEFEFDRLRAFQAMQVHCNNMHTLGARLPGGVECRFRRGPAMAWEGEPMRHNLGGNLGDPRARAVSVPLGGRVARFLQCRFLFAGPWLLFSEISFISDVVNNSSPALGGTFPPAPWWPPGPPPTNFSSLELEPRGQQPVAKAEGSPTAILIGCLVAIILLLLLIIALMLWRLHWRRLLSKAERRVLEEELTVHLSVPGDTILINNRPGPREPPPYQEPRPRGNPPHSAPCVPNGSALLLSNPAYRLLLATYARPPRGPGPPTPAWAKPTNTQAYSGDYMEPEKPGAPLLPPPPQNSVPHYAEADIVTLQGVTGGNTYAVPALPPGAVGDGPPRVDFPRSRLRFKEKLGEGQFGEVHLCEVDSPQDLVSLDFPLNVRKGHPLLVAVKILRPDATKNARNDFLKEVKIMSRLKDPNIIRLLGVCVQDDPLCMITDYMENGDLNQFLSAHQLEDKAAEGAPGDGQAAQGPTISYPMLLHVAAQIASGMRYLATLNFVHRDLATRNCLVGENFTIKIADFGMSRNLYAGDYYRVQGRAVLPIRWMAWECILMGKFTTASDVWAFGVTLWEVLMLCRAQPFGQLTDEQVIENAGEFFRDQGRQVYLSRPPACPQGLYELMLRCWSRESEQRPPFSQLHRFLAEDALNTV
Sequence of Mast/stem cell growth factor receptor Kit (P10721 whole entry, the tested form may be a part): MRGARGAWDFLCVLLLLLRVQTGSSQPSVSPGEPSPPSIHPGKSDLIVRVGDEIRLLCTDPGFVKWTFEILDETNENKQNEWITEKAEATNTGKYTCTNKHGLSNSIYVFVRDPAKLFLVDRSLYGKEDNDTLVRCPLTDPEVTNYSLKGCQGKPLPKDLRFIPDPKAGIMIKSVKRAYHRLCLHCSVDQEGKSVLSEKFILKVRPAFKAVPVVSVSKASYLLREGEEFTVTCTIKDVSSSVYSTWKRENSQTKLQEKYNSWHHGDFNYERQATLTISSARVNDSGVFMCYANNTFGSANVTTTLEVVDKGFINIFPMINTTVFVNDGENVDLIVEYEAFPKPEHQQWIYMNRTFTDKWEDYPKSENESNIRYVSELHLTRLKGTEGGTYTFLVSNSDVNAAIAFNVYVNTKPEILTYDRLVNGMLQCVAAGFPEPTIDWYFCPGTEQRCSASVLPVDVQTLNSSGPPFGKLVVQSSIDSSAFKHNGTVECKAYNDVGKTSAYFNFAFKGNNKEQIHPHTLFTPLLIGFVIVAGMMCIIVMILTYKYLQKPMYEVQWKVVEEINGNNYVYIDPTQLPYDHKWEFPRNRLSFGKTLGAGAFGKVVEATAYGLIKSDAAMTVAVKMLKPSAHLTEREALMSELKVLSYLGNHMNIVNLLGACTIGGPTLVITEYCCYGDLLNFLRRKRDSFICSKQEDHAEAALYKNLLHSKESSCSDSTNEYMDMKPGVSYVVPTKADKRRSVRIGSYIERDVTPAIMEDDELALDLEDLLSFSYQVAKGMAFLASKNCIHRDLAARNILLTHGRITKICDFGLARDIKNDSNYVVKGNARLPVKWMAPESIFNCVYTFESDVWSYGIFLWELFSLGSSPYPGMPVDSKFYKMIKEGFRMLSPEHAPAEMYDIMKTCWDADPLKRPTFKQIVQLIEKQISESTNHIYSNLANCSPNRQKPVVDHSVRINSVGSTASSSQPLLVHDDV
Sequence of Bcr/Abl fusion protein (P00519 whole entry, the tested form may be a part): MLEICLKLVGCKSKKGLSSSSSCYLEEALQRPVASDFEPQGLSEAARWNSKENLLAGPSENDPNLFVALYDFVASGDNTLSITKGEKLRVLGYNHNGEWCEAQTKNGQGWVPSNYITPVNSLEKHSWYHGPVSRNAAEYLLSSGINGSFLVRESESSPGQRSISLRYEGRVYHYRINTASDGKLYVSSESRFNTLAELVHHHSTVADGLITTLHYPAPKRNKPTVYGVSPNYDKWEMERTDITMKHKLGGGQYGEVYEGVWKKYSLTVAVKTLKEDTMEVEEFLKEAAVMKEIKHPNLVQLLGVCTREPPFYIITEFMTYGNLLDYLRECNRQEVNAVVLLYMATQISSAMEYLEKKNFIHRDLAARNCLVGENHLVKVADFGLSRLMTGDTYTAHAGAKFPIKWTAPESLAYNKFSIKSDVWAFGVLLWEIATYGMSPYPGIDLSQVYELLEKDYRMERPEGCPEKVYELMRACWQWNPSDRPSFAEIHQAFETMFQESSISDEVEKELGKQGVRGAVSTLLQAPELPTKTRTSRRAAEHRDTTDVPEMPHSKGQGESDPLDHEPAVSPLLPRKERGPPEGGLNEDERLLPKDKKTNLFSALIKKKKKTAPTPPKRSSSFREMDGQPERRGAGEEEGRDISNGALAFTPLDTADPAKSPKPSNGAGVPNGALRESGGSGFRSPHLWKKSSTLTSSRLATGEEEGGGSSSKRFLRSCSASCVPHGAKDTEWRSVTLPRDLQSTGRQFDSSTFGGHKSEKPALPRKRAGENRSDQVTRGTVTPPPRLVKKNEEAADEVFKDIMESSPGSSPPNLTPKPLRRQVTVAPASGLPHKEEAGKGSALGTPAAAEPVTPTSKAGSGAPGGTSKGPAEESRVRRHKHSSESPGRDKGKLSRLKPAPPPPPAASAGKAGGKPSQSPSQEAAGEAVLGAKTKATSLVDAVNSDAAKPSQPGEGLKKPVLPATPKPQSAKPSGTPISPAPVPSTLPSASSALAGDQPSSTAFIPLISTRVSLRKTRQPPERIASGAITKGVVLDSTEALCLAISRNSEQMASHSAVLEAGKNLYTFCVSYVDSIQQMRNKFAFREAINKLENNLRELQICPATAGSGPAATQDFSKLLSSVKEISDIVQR
Sequence of Bcr/Abl fusion protein (P11274 whole entry, further chain, the tested form may be a part): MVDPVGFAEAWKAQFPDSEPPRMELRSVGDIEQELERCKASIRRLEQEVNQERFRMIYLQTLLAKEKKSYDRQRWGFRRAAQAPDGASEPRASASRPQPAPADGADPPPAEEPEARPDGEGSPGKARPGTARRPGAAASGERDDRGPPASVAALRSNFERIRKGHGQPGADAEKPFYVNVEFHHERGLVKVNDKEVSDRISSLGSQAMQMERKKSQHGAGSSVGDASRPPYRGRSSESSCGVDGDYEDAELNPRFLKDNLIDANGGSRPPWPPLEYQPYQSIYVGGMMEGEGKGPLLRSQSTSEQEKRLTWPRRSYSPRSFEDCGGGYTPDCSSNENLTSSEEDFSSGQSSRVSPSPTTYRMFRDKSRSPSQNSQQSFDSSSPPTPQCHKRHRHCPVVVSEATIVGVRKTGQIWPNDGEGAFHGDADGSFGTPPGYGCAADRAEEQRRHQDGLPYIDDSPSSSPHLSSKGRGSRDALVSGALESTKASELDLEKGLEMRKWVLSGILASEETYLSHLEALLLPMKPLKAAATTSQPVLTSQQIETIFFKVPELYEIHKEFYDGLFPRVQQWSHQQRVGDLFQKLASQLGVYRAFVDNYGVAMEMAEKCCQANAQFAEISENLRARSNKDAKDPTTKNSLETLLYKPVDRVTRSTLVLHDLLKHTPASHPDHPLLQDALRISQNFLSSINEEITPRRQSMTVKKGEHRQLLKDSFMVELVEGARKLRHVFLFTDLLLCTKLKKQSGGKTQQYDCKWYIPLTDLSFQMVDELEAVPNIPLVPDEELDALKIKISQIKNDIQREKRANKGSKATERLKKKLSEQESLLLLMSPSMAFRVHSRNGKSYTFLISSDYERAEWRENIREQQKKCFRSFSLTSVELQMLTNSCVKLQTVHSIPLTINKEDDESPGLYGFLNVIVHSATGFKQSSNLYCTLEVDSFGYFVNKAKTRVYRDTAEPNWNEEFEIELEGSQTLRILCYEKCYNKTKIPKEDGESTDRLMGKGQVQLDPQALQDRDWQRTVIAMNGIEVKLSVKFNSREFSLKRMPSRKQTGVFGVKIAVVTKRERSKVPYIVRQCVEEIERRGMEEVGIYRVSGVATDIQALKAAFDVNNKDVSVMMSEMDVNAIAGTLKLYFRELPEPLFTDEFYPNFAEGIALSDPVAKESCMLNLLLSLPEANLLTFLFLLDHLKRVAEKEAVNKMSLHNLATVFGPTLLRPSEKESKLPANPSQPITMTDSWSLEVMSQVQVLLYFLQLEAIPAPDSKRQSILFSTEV
Sequence of BDNF/NT-3 growth factors receptor (Homo sapiens) (Q16620 32-822 limits assumed): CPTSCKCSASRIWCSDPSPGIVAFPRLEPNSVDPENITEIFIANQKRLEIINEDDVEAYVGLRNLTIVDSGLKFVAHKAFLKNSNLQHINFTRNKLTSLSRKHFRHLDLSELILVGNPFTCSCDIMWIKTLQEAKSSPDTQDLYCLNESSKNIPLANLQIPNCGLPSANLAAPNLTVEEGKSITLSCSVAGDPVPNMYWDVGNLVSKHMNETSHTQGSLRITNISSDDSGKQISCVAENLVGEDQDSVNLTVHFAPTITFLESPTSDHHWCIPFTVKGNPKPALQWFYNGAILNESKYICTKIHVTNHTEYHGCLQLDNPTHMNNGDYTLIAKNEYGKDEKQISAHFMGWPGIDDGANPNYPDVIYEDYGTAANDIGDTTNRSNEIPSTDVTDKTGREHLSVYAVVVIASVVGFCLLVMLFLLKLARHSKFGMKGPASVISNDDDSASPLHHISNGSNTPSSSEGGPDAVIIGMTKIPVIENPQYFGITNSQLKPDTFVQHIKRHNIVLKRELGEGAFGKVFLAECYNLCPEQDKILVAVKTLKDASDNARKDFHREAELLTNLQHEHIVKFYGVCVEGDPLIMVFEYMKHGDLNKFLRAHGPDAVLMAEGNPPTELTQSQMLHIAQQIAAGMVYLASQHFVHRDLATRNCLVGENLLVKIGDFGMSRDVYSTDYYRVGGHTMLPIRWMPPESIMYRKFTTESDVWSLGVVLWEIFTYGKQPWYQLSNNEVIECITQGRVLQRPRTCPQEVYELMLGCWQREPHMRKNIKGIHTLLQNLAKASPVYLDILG

Row | Compound | IC50 [1] [µM] | IC50 [2] [µM] | IC50 [3] [µM] | IC50 [4] [µM] | further results
1 | CC1CN(c2cncnc2)Cc2cc(C(=O)Nc3cccc(C(F)(F)F)c3)ccc21 (racemic) | > 10 | > 10 |  |  | 
2 | CC1Cc2ccc(C(=O)Nc3cc(CN4CCN(C)CC4)cc(C(F)(F)F)c3)cc2CN1c1cncnc1 (racemic) | > 10 | > 10 |  |  | 
3 | CN1CCN(Cc2cc(NC(=O)c3ccc4c(c3)CN(c3ccncn3)CC4)cc(C(F)(F)F)c2)CC1 | > 10 | > 10 | > 10 | > 10 | 
4 | CCc1ccc(C(=O)Nc2cc(CN3CCN(C)CC3)cc(C(F)(F)F)c2)cc1C#Cc1ccc2ccnn2c1 | 0.414 | 2.5 | 0.0131 | 0.203 | 
5 | CC(C)c1cc(CN2CCN(C)CC2)cc(NC(=O)c2ccc3c(c2)CN(c2cncnc2)CC3C)c1 (racemic) | 8.7 | > 10 | 0.0499 | 0.682 | 
6 | CC1CN(c2cncnc2)Cc2cc(C(=O)Nc3cc(CN4CCSCC4)cc(C(F)(F)F)c3)ccc21 (racemic) | > 10 | > 10 |  |  | 
7 | CC1CN(c2cncnc2)Cc2cc(C(=O)Nc3cc(CN4CCN(C)CC4)cc(C4CCCCC4)c3)ccc21 (racemic) | > 10 | > 10 | 0.123 |  | 
8 | CC1CN(c2cncnc2)Cc2cc(C(=O)Nc3cc(C(F)(F)F)ccc3CN3CCN(C)CC3)ccc21 (stereo unspecified) | > 10 | > 10 | 10 | > 10 | 
9 | CC1CN(c2cncnc2)Cc2cc(C(=O)Nc3cc(CN4CCOCC4)cc(C(F)(F)F)c3)ccc21 (stereo unspecified) | > 10 | > 10 |  |  | 
10 | CC1CN(c2cncnc2)Cc2cc(C(=O)Nc3cc(CN4CCN(C)CC4)cc(-c4ccccc4)c3)ccc21 (racemic) | 10 | > 10 |  |  | 
11 | CC1CN(c2cncnc2)Cc2cc(C(=O)Nc3cc(CN4CCCCC4)cc(C(F)(F)F)c3)ccc21 (racemic) | > 10 | > 10 |  |  | 
12 | CC1CN(c2cncnc2)Cc2cc(C(=O)Nc3cc(N4CCN(C)CC4)cc(C(F)(F)F)c3)ccc21 (racemic) | > 10 | > 10 |  | 2.1 | 
13 | CC1CN(c2cncnc2)Cc2cc(C(=O)Nc3cccc(CN4CCN(C)CC4)c3)ccc21 (racemic) | > 10 | > 10 | > 10 | > 10 | 
14 | CN1CCN(Cc2cc(NC(=O)c3ccc4c(c3)CN(c3cncnc3)CC4(C)C)cc(C(F)(F)F)c2)CC1 | > 10 | > 10 |  |  | 
15 | CC1CN(c2cncnc2)Cc2cc(C(=O)Nc3cc(CN4CCN(C)CC4)cc(C4CC4)c3)ccc21 (racemic) | 9.9 | > 10 |  |  | 
16 | CCc1cc(CN2CCN(C)CC2)cc(NC(=O)c2ccc3c(c2)CN(c2cncnc2)CC3C)c1 (racemic) | > 10 | > 10 |  |  | 
17 | CC1CN(c2cncnc2)Cc2cc(C(=O)Nc3cc(CN(C)C)cc(C(F)(F)F)c3)ccc21 (racemic) | > 10 | > 10 |  |  | 
18 | CC1CN(c2cncnc2)Cc2cc(C(=O)Nc3cc(CN4CCN(C5CCCCC5)CC4)cc(C(F)(F)F)c3)ccc21 (racemic) | > 10 | > 10 |  | 0.846 | 
19 | CC1CN(c2cncnc2)Cc2cc(C(=O)Nc3ccc(CN4CCN(C)CC4)c(C(F)(F)F)c3)ccc21 (racemic) | 0.547 | > 10 |  | 0.354 | 
20 | CN1CCN(Cc2cc(NC(=O)c3ccc4c(c3)CN(c3cncnc3)CC4)cc(C(F)(F)F)c2)CC1 |  | > 10 |  |  | 
21 | CN1CCN(Cc2cc(NC(=O)c3ccc4c(c3)CN(Cc3cncnc3)CC4)cc(C(F)(F)F)c2)CC1 | > 10 | > 10 | > 10 | > 10 | 

Now from value to compound, other results behind:

Row | IC50 [1] [µM] | IC50 [2] [µM] | IC50 [3] [µM] | IC50 [4] [µM] | Compound | further results
22 | > 10 | > 10 | 0.167 | 2.6 | C[C@@H]1CN(c2cncnc2)Cc2cc(C(=O)Nc3cc(CN4CCCN(C)CC4)cc(C(F)(F)F)c3)ccc21 | 
23 | > 10 | > 10 | 0.0711 | 0.944 | CCN1CCN(Cc2cc(NC(=O)c3ccc4c(c3)CN(c3cncnc3)CC4C)cc(C(F)(F)F)c2)CC1 (stereo unspecified) | 
24 |  | > 10 |  |  | CC1CN(c2cncnc2)Cc2cc(C(=O)Nc3cc(CN4CCN(C)CC4)cc(C(F)(F)F)c3)ccc21 (racemic) | 
25 | > 10 | > 10 |  | 2.6 | CC1CN(c2cncnc2)Cc2cc(C(=O)Nc3cc(CN4CCCC4)cc(C(F)(F)F)c3)ccc21 (racemic) | 
26 | 4.3 | > 10 |  |  | CC1CN(c2cncnc2)Cc2cc(C(=O)Nc3cc(CN4CCN(C)CC4)cc(C(C)(C)C)c3)ccc21 (racemic) | 
27 | > 10 | > 10 | > 10 | > 10 | CC1CN(c2cncnc2)Cc2cc(NC(=O)Nc3cc(CN4CCN(C)CC4)cc(C(F)(F)F)c3)ccc21 (racemic) | 
28 | > 10 | > 10 |  |  | CC1CN(c2cncnc2)Cc2cc(C(=O)Nc3cc(CN4CCCN(C)CC4)cc(C(F)(F)F)c3)ccc21 (racemic) | 
29 | > 10 | > 10 | 0.0807 | 1.5 | CC1CN(c2cncnc2)Cc2cc(C(=O)Nc3cc(CCN4CCN(C)CC4)cc(C(F)(F)F)c3)ccc21 (racemic) | 
30 |  | > 10 |  |  | C[C@H]1CN(c2cncnc2)Cc2cc(C(=O)Nc3cc(CN4CCN(C)CC4)cc(C(F)(F)F)c3)ccc21 | 
31 | 8.1 | > 10 | 0.0066 | 0.255 | C[C@H]1CN(c2cncnc2)Cc2cc(C(=O)Nc3cc(CN4CCCN(C)CC4)cc(C(F)(F)F)c3)ccc21 | Kd [5]: 0.0022 µM; inhibition [6]: Dose-dependent effect; inhibition [7]: Dose-dependent effect; Activity [8]: Active; Activity [9]: Dose-dependent effect; Activity [10]: Dose-dependent effect; Activity [11]: Active; Activity [12]: Active; Activity [13]: Active; inhibition [14]: 99.9%
